Results reported in patent publication US20250375528A1, “CONJUGATE OF CELL-PENETRATING PEPTIDE AND MELPHALAN, AND PREPARATION CONTAINING CONJUGATE” (priority 2021, published 2025).
≈ marks a conversion by molar mass, not a printed value. Where two headings read alike, the source gives them in different places. Where a SMILES comes first, the peptide text is derived from it. Where no end group is shown, it is not given here. [ ]: non-standard residue; d: D form. ξ: configuration not given here. ξPhe(4-N(CH2CH2Cl)2) = NC(Cc1ccc(N(CCCl)CCCl)cc1)C(=O)O

Columns and labels:
HCEC cells [1] = experiment: cells; assay type: cell-based; details: 4 hrs co-incubation then 24 h fresh medium, MTT
Experimental: The survivals of the HCEC, ARPE-19 and WERI-Rb-1 cells after co-incubation with polypeptides or conjugates were investigated by the MTT or CCK-8 methods (n=4). The HCEC or ARPE-19 cells were co-incubated with polypeptides or conjugates for 4 hrs, followed by incubation in fresh medium for 24 h before addition of MTT for detection. The WERI-Rb-1 cells were co-incubated with the polypeptides or conjugates for 4 hrs, and then CCK-8 was added directly for detection. The cells under normal culture conditions were used as negative control (100% survival).
(§1) The ARPE-19 and WERI-Rb-1 cells with good growth status in the logarithmic phase were placed on 96 well plates at a density of 2000 cells/well. After incubation for 24 hrs, the drug solutions at different concentrations were added. The ARPE-19 cells were incubated at 37° C. for 4 hrs. Then, the drug solutions were discarded. The plates were washed with PBS thrice. The fresh medium was then added and incubated for 24 h. Then, 0.5 mg/mL MTT was added and incubated at 37° C. for 4 hrs. The culture solution was discarded. To each well DMSO (150 μl) was added, and the plates were shaken on a shaker for 20 min. Then, the OD490nm value was measured. For the WERI-Rb-1 cells, they were incubated with drug solutions for 4 hrs, and CCK-8 reagent (10 μL) was added to each well. The plates were incubated at 37° C. for 2 hrs. The OD490nm value was measured directly. In addition, zero_adjustment wells and negative control wells (cell survival rate 100%) were set.

[2] = Hematology safety evaluation (complete blood cell count); assay type: in vivo, ICR mice; details: eye dropping 2 times a day for 2 weeks
Experimental: Safety evaluation of 89WP-Mel eye drops: it is likely that the eye drops may be absorbed systemically, while the chemotherapeutic drug melphalan may cause systemic toxicity. The representative side effects include bone marrow suppression, etc. Thus, hematology evaluation was performed in the administration groups to determine the safety of the eye drops. Healthy male ICR mice (18-20 g) were subjected to the administration according to the regimen of pharmacodynamic evaluation experiment, wherein the frequency of eye dropping the normal saline, melphalan solution, and 89WP-Mel solution was changed to 2 times a day for 2 weeks, and the melphalan intravitreal injection was performed once a week. At the end of administration, 200 μL of whole blood was taken, anticoagulated with EDTA, and subjected to a complete blood cell count.

WERI-Rb-1 cells = assay type: cell-based; details: WERI-Rb-1, 4 hrs co-incubation, CCK-8
Experimental: as §1

ARPE-19 cells [3] = assay type: cell-based; details: ARPE-19, 4 hrs co-incubation then 24 h fresh medium, MTT
Experimental: as §1

Fluc/GFP-Rb-1 cells [4] = experiment: In vivo safety evaluation in orthotopic tumor-bearing mouse model
Experimental: Before the experiments, the healthy male Balb/c-nude mice (4 weeks old) were subjected to ophthalmic examination to ensure the normal eyes. Amobarbital sodium (40 mg/kg) was injected intraperitoneally to the mice for general anesthesia, the commercially available 0.4% oxybuprocaine hydrochloride eye drops were administrated to the surface of the eyes for local anesthesia of the eye surface, and the commercially available 0.5% tropicamide eye drops were administrated for pupil dilation. The Fluc/GFP-Rb-1 cells (resuspended in 10 mM PBS at a density of 1×10^4 cells/μL) were injected into the vitreous body of the mice via a micro-syringe (33 G, Hamilton), 2 μL cell suspension for each eye.
For the tumor-bearing mice, administration was performed by ocular surface dropping.
Detection scheme: At the end of 1 month administration, the mice were euthanized by an overdose of anesthesia (anaobarbital sodium, 150 mg/kg). The cardiac perfusion was performed sequentially with normal saline and 4% paraformaldehyde. The eyeballs, hearts, liver, spleen, lung, kidney, brain and other organs were harvested and dehydrated overnight in 15% and 30% sucrose solutions gradient. The HE stained sections and immunohistochemical sections were made and observed.

[5] = Solubility assay in normal saline (HPLC); assay type: physicochemical; details: 37° C.
Experimental: Liquid chromatography detection conditions for melphalan: column: YMC-Pack ODS-A column (150×4.6 mm, 5 μm); mobile phase: 40% acetonitrile solution; flow rate: 0.7 mL/min; column temperature: 25° C.; detection wavelength: 260 nm; injection volume: 10 μL.
Solubility assay: melphalan 0.1 mg was accurately weighted and dispersed in 1 mL normal saline, ultrasonicated for 5 min, incubated at 37° C. for 24 hrs, and filtered through 0.22 μm filter membrane. The peak area of the sample was obtained by liquid chromatography. The concentration of the sample was calculated by substituting the peak area in the standard curve equation.
Liquid chromatography detection conditions for 89WP-Mel and 289WP-Mel: column: YMC-Pack ODS-A column (150×4.6 mm, 5 μm); mobile phase: 5-65% acetonitrile (with 0.1% TFA), 30 min; flow rate: 0.7 mL/min; column temperature: 25° C.; detection wavelength: 214 nm; injection volume: 10 μL.
Solubility assay: The excess amount of 89WP-Mel or 289WP-Mel was dispersed in 60 μL normal saline, ultrasonicated for 5 min, incubated at 37° C. for 24 hrs, filtered through 0.22 μm filter membrane, and then diluted 10 times and 20 times respectively. The peak area of the samples was obtained by liquid chromatography. The concentration of the samples was calculated by substituting the peak area in the standard curve equation.
The samples were incubated in normal saline at 37° C. and 160 rpm for 24 h to obtain the saturated solutions. The solubility of the conjugates is converted to the solubility of melphalan moiety.

[6] = system: retinoblastoma (Fluc/GFP-Rb-1) cells; experiment: Eye drops for treatment of intraocular retinoblastoma, mouse model; assay type: in vivo, Balb/c nude mice; details: for mice with obvious tumor areas in the brain sections: 8 mice per group
Experimental: Construction of retinoblastoma mouse model: the male Balb/c nude mice (18-20 g) were subjected to general anesthesia by intraperitoneal injection of amobarbital sodium (30 mg/kg). The 0.4% oxybuprocaine hydrochloride was administrated for local anesthesia of the eye surface. After the anesthesia, the 0.5% tropicamide was administrated for pupil dilation. The retinoblastoma (Fluc/GFP-Rb-1) cells (resuspended in 2 μL 10 mM PBS, 2×10^4 cells for each mouse) were slowly injected into the vitreous body near retina via a micro-syringe (33 G, Hamilton). After the injection, 0.25% chloramphenicol was dropped to the ocular surface to prevent ocular inflammation. Then, it is determined whether the model was successfully established according to the bioluminescent signal intensity in the eyes of the mice. The successfully established model mice were randomly divided into 4 groups, with 8 mice in each group.
During the 60-day pharmacodynamic evaluation experiment, the dosage regimens for the different mice groups are as follows: Group 1: eye dropping with normal saline once a day, 10 μL for each dropping; Group 2: eye dropping with 3.0 mg/mL melphalan solution once a day, 10 μL for each dropping; Group 3: eye dropping with 89WP-Mel solution (containing 3.0 mg/mL melphalan) once a day, 10 μL for each dropping; Group 4: intravitreal injection with 0.5 mg/mL melphalan solution once every two weeks, 2 μL for each injection.
The method of efficacy evaluation is as follows: on Day 0, 2, 4, 6, 9, 12, 15, 17, 20, 25 and 30 after the administration, the mice in each group were injected intraperitoneally with 150 mg/kg D-Luciferin, followed by anesthesia with isoflurane for 15 min. The bioluminescent signal intensity in the eyes of the mice was detected by IVIS Spectrum system (PerkinElmer, USA).

Fluc/GFP-Rb-1 cells [7] = experiment: Intraocular pharmacodynamic evaluation in tumor-bearing mice; assay type: in vivo
Experimental: Specifically, D-luciferin (150 mg/kg) was injected intraperitoneally into each mouse, followed by general anesthesia with isoflurane. Twenty minutes after anesthesia, ocular bioluminescence signals were collected, with 30 seconds exposure time. On the day of administration (D0) and at the corresponding time points after administration, the bioluminescence signals of the mice eyeballs in each group were collected. […] The whole brain tissue was harvested. The immunohistochemical sections were made and observed.

red blood cells = experiment: Ability to lyse red blood cells at different pH; assay type: cell-based
Experimental: The red blood cells were resuspended at a density of 7×10^7 cells/mL in incubation medium at different pHs. The cell suspension (75 μL) was mixed with 75 μL of aqueous solution of test sample. Pure water was set as a negative control, and 1 μL Triton X-100 dissolved in 74 μL pure water was set as a positive control. Incubation was performed at 37° C. for 1 h in an air shaker at 200 rpm. After incubation, the samples were centrifugated at 1000 g for 5 min. The supernatant (100 μL) was taken to measure the OD450 nm/750 nm via microplate reader.

[8] = Ocular pharmacokinetic evaluation after eye dropping; assay type: in vivo, mice
Experimental: The distribution and elimination behavior of the conjugates in the eye tissues was investigated by dropping the drugs into the conjunctival sac of the mice. The conjugate solution 10 μL (at a concentration of 30 μM) was dropped into the conjunctival sac of the mice. The eyelids were gently closed to make the solution distributed evenly. […] The eyeballs were taken out and fixed with FAS eyeball fixative solution for 24 hours, dehydrated with 15% and 30% sucrose solution gradients, and then embedded in OCT to prepare 8 μm thick eyeball frozen sections. The cell nuclei were stained with DAPI.

ARPE-19 cells [9] = experiment: Intracellular distribution by laser confocal microscope; assay type: cell-based; details: ARPE-19, 3 μM, 37° C., 4 hrs
Experimental: (§2) The HCEC and ARPE-19 cells with good growth status in the logarithmic phase were placed in 4-chamber confocal dishes at a density of 1×10^4 cells/well and incubated for 24 hrs. The drug solutions (all comprising 3 μM fluorescein) were added and incubated at 37° C. for 3.5 hrs. LysoTracker was then added and incubated for 0.5 hrs. Then, the drug solutions were discarded. After being washed with cold 10 mM PBS (containing 0.02 mg/mL heparin sodium) thrice and fixed with 4% paraformaldehyde, the nuclei were stained with DAPI.

HCEC cells [10] = experiment: as above; assay type: cell-based; details: 3 μM, 37° C., 4 hrs
Experimental: as §2

ARPE-19 cell monolayer = experiment: Penetration across the retinal pigment epithelial cell monolayer model; details: four hours after administration, 3 μM
Experimental: The model in FIG. 8B is obtained by seeding the WERI-Rb-1 cells in good growth state at 2×10^4 cells/well in the lower chamber 24 hours before administration.
Samples (200 μL for each sampling) were taken every 0.5 h from the lower chamber, and 200 μL fresh D-Hank's balanced salt solution was added immediately. A total of 8 samples were taken. The fluorescence signal intensity of the samples was detected with a microplate reader (Ex 490 nm/Em 520 nm).
The calculation formula of the Apparent Permeability Coefficient (Papp) is as follows:
wherein, ΔQ/Δt is the change of the molar amount of the polypeptide across the retinal pigment epithelial cell monolayer model per unit time, which can be obtained from the slope by fitting the cumulative permeability and the diffusion time; C0 is the initial concentration of the polypeptide in the donor cell, which is 3 μM; A is the area of the cornea or sclera exposed to the diffusion medium, i.e., the effective diffusion area, which is 0.825 cm^2.

[11] = read-out: Solubility of drug-polypeptide conjugate
[12] = intravitreal injection 0.5 mg/mL
[13] = saline or isotonic, thermodynamic from solid, read-out: Solubility of drug
[14] = four hours after dropping, 30 μM

In the case of `CC[C@H](C)[C@H](NC(=O)[C@H](CCCCN)NC(=O)[C@@H](NC(=O)[C@H](CCC(N)=O)NC(=O)[C@@H](N)CCCNC(=N)N)[C@@H](C)CC)C(=O)N[C@@H](Cc1c[nH]c2ccccc12)C(=O)N[C@@H](Cc1ccccc1)C(=O)N[C@@H](Cc1c[nH]c2ccccc12)C(=O)N[C@@H](Cc1c[nH]c2ccccc12)C(=O)N[C@@H](CCCNC(=N)N)C(=O)N[C@@H](CCCNC(=N)N)C(=O)N[C@@H](CCSC)C(=O)N[C@@H](CCCCN)C(=O)N[C@@H](Cc1c[nH]c2ccccc12)C(=O)N[C@@H](CCCCN)C(=O)N[C@@H](CCCCN)C(=O)NC(Cc1ccc(N(CCCl)CCCl)cc1)C(=O)O` (stereo partly drawn) [89WP-Mel] (H-RQIKIWFWWRRMKWKK[ξPhe(4-N(CH2CH2Cl)2)]-OH), the IC50 (HCEC cells [1]; read-out: IC50) is reported as 147 µM, the “platelet count versus normal saline eye dropping group” value [2] is reported as “did not significantly decrease” and the “red blood cell count versus normal saline eye dropping group” value [2] is reported as “did not significantly decrease”. For the same compound, the “white blood cell count versus normal saline eye dropping group” value [2] was “did not significantly decrease”, the IC50 (WERI-Rb-1 cells) was 0.28 µM and the IC50 (ARPE-19 cells [3]; read-out: IC50) was 177 µM. The “safety by HE-stained sections of the various organs” value (Fluc/GFP-Rb-1 cells [4]; eye dropping, 1 month) was “safe” and the solubility at 24 h [5, 11] was 44.7 ± 2.62 mg/mL (≈ 16.8 mM).

`CC[C@H](C)[C@H](NC(=O)[C@H](CCCCN)NC(=O)[C@@H](NC(=O)[C@H](Cc1c[nH]c2ccccc12)NC(=O)[C@@H](N)CCCNC(=N)N)[C@@H](C)CC)C(=O)N[C@@H](Cc1c[nH]c2ccccc12)C(=O)N[C@@H](Cc1ccccc1)C(=O)N[C@@H](Cc1c[nH]c2ccccc12)C(=O)N[C@@H](Cc1c[nH]c2ccccc12)C(=O)N[C@@H](CCCNC(=N)N)C(=O)N[C@@H](CCCNC(=N)N)C(=O)N[C@@H](CCSC)C(=O)N[C@@H](CCCCN)C(=O)N[C@@H](Cc1c[nH]c2ccccc12)C(=O)N[C@@H](CCCCN)C(=O)N[C@@H](CCCCN)C(=O)NC(Cc1ccc(N(CCCl)CCCl)cc1)C(=O)O` (stereo partly drawn) [289WP-Mel] (H-RWIKIWFWWRRMKWKK[ξPhe(4-N(CH2CH2Cl)2)]-OH; N-terminus assumed) showed a solubility at 24 h [5, 11] of 41.8 ± 1.39 mg/mL (≈ 15.4 mM).

In the case of `N[C@@H](Cc1ccc(N(CCCl)CCCl)cc1)C(=O)O` [melphalan], the IC50 (HCEC cells [1]; listed as Mel) is reported as 113 µM, the IC50 (HCEC cells [1]; Homo sapiens) is reported as 100 to 200 µM and the “mice with obvious tumor areas in the brain sections” value ([6]; eye dropping 3.0 mg/mL) is reported as 1. For the same compound, the “anti-tumor effect in the first month of administration” value ([6]; eye drops once a day, 3.0 mg/mL melphalan content) was “no antitumor effect”, the “mice with obvious tumor areas in the brain sections” value [6, 12] was 2 and the IC50 (ARPE-19 cells [3]) was 100 to 200 µM. For the same compound, the IC50 (ARPE-19 cells [3]; listed as Mel) was 200 µM, the “size of the vitreous seeds of intraocular tumors, order of groups” value (Fluc/GFP-Rb-1 cells [4]; melphalan solution 3.0 mg/mL eye dropping) was “normal saline group≈melphalan solution eye dropping group” and the solubility at 24 h [5, 13] was < 0.001 mg/mL. The solubility thermodynamic at 24 h [5, 13] was < 0.001 mg/mL, the “mice with obvious brain tumor areas” value (Fluc/GFP-Rb-1 cells [7]; eye dropping 3.0 mg/mL) was “one” and the “tumor growth curve versus normal saline eye dropping group” value (Fluc/GFP-Rb-1 cells [7]; eye dropping 10 μl once a day, 3.0 mg/mL melphalan content) was “no significant difference”. The “mice with obvious brain tumor areas” value (Fluc/GFP-Rb-1 cells [7]; [12]) was “two” and the “survival period versus normal saline group” value (Fluc/GFP-Rb-1 cells [7]; intravitreal injection 0.5 mg/mL, 2 μL, once per two weeks) was “no significant difference”.

With RQIKIWFWWRRMKWKK [89WP] the hemolysis ratio (red blood cells; pH 5.5, 40 μM) was 16.4%, the hemolysis ratio (red blood cells; pH 5.5, 640 μM) was 45.1% and the hemolysis ratio (red blood cells; pH 6.0, 160 μM) was 21.7%. The hemolysis ratio (red blood cells; pH 6.0, 640 μM) was 33.3%, the hemolysis ratio (red blood cells; pH 7.4, 640 μM) was 25.8% and the hemolysis ratio (red blood cells; pH 7.4, low concentration (<320 μM)) was “around 10%”.

For carboxyl fluorescein [FAM], the “time of peak fluorescence intensity in the retina” value ([8]; 10 μL of 30 μM dropped into conjunctival sac) was 4 h, the “retinal fluorescence intensity versus blank retina” value ([8]; 8 hours after eye dropping) was “no significant difference” and the “fluorescence signal in anterior ocular segment (cornea), whole eye sections” value [8, 14] was “no obvious green or red fluorescence signal”. The “fluorescence signal in posterior ocular segment (retina), whole eye sections” value [8, 14] was “no obvious green or red fluorescence signal”, the “fluorescence signal in the cells” value (ARPE-19 cells [9]) was “no obvious green fluorescence signal” and the “fluorescence signal in the cells” value (HCEC cells [10]) was “no obvious green fluorescence signal”. The “fluorescence signal at the donor side of the cell monolayer” value (ARPE-19 cell monolayer) was “no green fluorescence signal”.
